First: Clc1nnc(C(Cl)(Cl)Cl)s1
Second: CCOC(Cl)(Cl)C1OC(=C(Cl)Cl)c2cc(C(=O)O)ccc2O1 (centres undefined)
The melting point of the first is lower: 41 °C for the first, 121 to 122 °C for the second.

First: CSC(SC)=C1C(=O)OC(C)(C)OC1=O
Second: CC(C)[C@H](CC1C(=O)OC(C)(C)OC1=O)NC(=O)OC(C)(C)C
The melting point of the first is higher: 114 to 118 °C for the first, 108 to 112 °C for the second.

Compared with C[C@@H](c1ccc(/C=C/c2ccnn2C)cc1)[C@](O)(Cn1cncn1)c1ccc(F)cc1F, OCc1ccc(-c2ccc3nnn(Cc4ccc(F)cc4)c3n2)cc1 is higher in melting point: 81 to 83 °C for the first, 210 to 213 °C for the second.

Compared with Cc1cc(-c2cnn3c(C(F)(F)F)cc(-c4ccc(Cl)cc4)nc23)cc(C)n1, Cc1cc(-c2cc(C(F)(F)F)n3ncc(C(=O)Nc4cccc(S(=O)(=O)N5CCCC5)c4)c3n2)ccc1Cl is lower in melting point: 256 °C for the first, 230 °C for the second.

First: N#Cc1cncc(NCc2ccccc2)c1
Second: c1ccc(CSc2nc[nH]n2)cc1
The melting point of the first is higher: 131 °C for the first, 79 to 80 °C for the second.

First: O=C(CCCN1CCN(c2noc3cc(OC(=O)C45CC6CC(CC(C6)C4)C5)ccc23)CC1)c1ccc(F)cc1
Second: CC(C)C(=O)NCc1ccc2ccn(C3CCN(CCc4ccc(F)cc4)CC3)c2c1
The melting point of the first is higher: 157 to 158 °C for the first, 97 to 98 °C for the second.

Compared with FC(F)C(F)(F)Sc1nc(-c2ccc(Cl)c(Cl)c2)c(-c2cccs2)[nH]1, NC(=O)c1ncn2c(-c3ccc(Cl)c(Cl)c3)ccnc12 is higher in melting point: 178 to 180 °C for the first, 302 to 304 °C for the second.

Compared with NC(=O)CNC(=O)c1cccc(-c2cccc3oc(Cc4cccc(C(F)(F)F)c4)cc23)c1, O=C(NCc1ccccc1)c1ccnc(NC(=O)c2ccccc2F)c1 is higher in melting point: 105 to 106 °C for the first, 175 to 176 °C for the second.

First: C=CCOc1ccc2c(C)c(C#N)c(=O)oc2c1C
Second: Cc1c(C)c2c(c(C)c1O)CCC(C)(COc1ccc([N+](=O)[O-])cc1)O2 (centres undefined)
The melting point of the first is higher: 172 °C for the first, 114 to 116 °C for the second.

First: CC(C)NCC(O)COc1ccc2c(=O)cc(-c3cc(OCc4ccccc4)cc(OCc4ccccc4)c3)oc2c1 (centres undefined)
Second: Oc1ncnc2c1cnn2C1OC(COCc2ccccc2)C(OCc2ccccc2)C1OCc1ccccc1 (centres undefined)
The melting point of the first is lower: 173 to 174 °C for the first, 204 °C for the second.

First: O=C(OCC1CC1)c1ncn2c1[C@@H]1CCCN1C(=O)c1c(Cl)cccc1-2
Second: CC(=O)N1CCCC(=O)c2ccc(Cl)cc2CCC1=O
The melting point of the first is higher: 195 to 196 °C for the first, 154 to 156 °C for the second.

First: CCCCCCCNC(=O)Nc1ccc(O)cc1C(=O)NCC1CCN(C(c2ccccc2)c2ccccc2)CC1
Second: O=C1CCN(CC=Cc2ccccc2)CC1C(c1ccccc1)c1ccccc1 (centres undefined)
The melting point of the first is higher: 165 to 167 °C for the first, 114 to 115 °C for the second.

First: CC(CSC(=O)c1ccccc1)C(=O)N(CC(=O)O)C1CCC(c2ccccc2)CC1 (centres undefined)
Second: CSc1cccc(NC(=O)NCC(=O)N2[C@@H](C(=O)OC(C)(C)C)C[C@H](C(=O)O)[C@H]2c2ccccc2)c1 (racemic)
The melting point of the first is higher: 180 to 181 °C for the first, 130 °C for the second.

First: CSc1ncncc1C1c2cc(C#N)ccc2CC1(C)C (centres undefined)
Second: COc1ccc2oc(Cc3cccnc3)c(CC#N)c2c1
The melting point of the first is higher: 157 to 158 °C for the first, 123 °C for the second.

First: Cc1nc(-n2cc(CCc3ccccc3)nn2)sc1C(=O)NCc1ccccc1
Second: N#CCCn1c(C(=O)OCc2ccccc2)cc2ccccc21
The melting point of the first is higher: 167 to 170 °C for the first, 98 to 100 °C for the second.

First: Cc1oc2ccc(-n3nnc4cccnc43)cc2c1C
Second: COc1ccccc1-n1c(=O)[nH]c2cccnc21
The melting point of the first is higher: 152 to 153 °C for the first, 130 °C for the second.

Going from N#CCc1nc2c(s1)Cc1cc(Cl)ccc1-2 to N#Cc1c(N2CCN(C(=O)c3cccs3)CC2)c2cc(Cl)cnc2[nH]c1=O, the melting point rises from 134 °C to 158 °C.

Compared with CCc1nc2c(cnn2CC)c(NC2CCOCC2)c1CNC(=O)c1cccc(C(=O)NCc2ccc(C)c(-c3cccc(CN4CC(C)NC(C)C4)c3)c2)c1 (centres undefined), Cc1ccc(NC(=O)c2ccc(CN3CCOCC3)c(C(F)(F)F)c2)cc1-c1ccc2cnncc2c1 is higher in melting point: 109 to 112 °C for the first, 160 to 162 °C for the second.

Compared with CC(Oc1ccccc1[N+](=O)[O-])c1nnc(N)s1 (centres undefined), Cc1ccc([N+](=O)[O-])c2[nH]ccc(=O)c12 is higher in melting point: 137 to 142 °C for the first, 219 to 225 °C for the second.

Compared with CCCCCCCCCCCCCCCCOC(=O)c1cccc([N+](=O)[O-])c1, CCCCCCC(O)CCCCCCCCCCC(N)=O (centres undefined) is higher in melting point: 51 to 53 °C for the first, 98 to 99 °C for the second.

Compared with CCOCc1nc2c(N)nc3cc(Br)cnc3c2n1CCCON=C(C)C, CCOC(=O)CCCOc1cccc(Oc2nc(OC)cc(OC)n2)c1C=NNc1ccc(Cl)cc1 is higher in melting point: 128 to 130 °C for the first, 139 °C for the second.

Compared with OCc1cc2c(cn1)[nH]c1ccccc12, O=C(NCCc1ncc(Cl)cc1Cl)c1ccccc1C(F)(F)F is lower in melting point: 228 to 230 °C for the first, 118 °C for the second.

Going from CCCCc1ncc(CSC(CC(=O)O)C(=O)O)n1Cc1ccc(C(=O)O)cc1 (centres undefined) to CC(C)CCOc1ccc(S(=O)(=O)C2(C(=O)O)CCN(Cc3ccccc3)CC2)cc1, the melting point falls from 140 °C to 106 °C.

First: CC1(C)C(C(=O)OCC(Cl)(Cl)Cl)N2C(=O)C(NC(=O)Cc3ccccc3)C2S1=O (centres undefined)
Second: CC(C)(Nc1ccc(Cc2ccccc2)cc1)C(=O)O
The melting point of the first is higher: 166 to 168 °C for the first, 130 °C for the second.

First: COc1ccc2[nH]c3cc(C(=O)OCc4ccccc4)c4c(c3c2c1)C(=O)NC4=O
Second: COc1ccc(CNCCCOc2ccc(NC(=O)c3cccc4c(=O)c5ccccc5[nH]c34)cc2)cc1OC
The melting point of the first is higher: 245 °C for the first, 138 to 139 °C for the second.

CC(C)c1cc(C(C)C)c2c(c1)C1(O)C(=O)c3ccccc3C1(O)O2 (centres undefined) and COc1cc(O)c(C=NNC(=O)c2cc3ccccc3s2)c(OC)c1 cannot be ordered by melting point: 205 to 206 °C for the first, 205 °C for the second.

First: O=C(NC1CC1)N1CCc2[nH]cnc2C1
Second: O=C(Nc1cc(C2CC2)n[nH]1)c1ccc[nH]1
The melting point of the first is higher: 215 °C for the first, 207 to 209 °C for the second.

Compared with COC(=O)CC1Cc2ccc(O)cc2NC1=O (centres undefined), CON(Cc1ccc(F)c(C)c1)C(=O)C1=C(O)C(=O)N(C)C1 is lower in melting point: 178 to 180 °C for the first, 160 to 164 °C for the second.

Compared with c1cc(OCC2CO2)c2nsnc2c1 (centres undefined), CCCCCCCCC(=S)n1c(-c2cscn2)nc2ccccc21 is lower in melting point: 65 to 67 °C for the first, 58 to 59 °C for the second.

First: CC(=O)c1ccsc1C(=O)O
Second: COC(=O)c1cc(C(=O)O)c2c(Cl)cc(Cl)cc2n1
The melting point of the first is lower: 155 to 156 °C for the first, 260 to 262 °C for the second.

First: COc1ccn2c(C)c(CCc3ccc4nc(O)oc4c3)nc2c1
Second: COC(=O)c1ccc(-c2coc3ccc(-c4nnc(C)o4)cc23)c(Cl)c1
The melting point of the first is higher: 255 to 257 °C for the first, 171 to 172 °C for the second.

Compared with Cc1ccc(-c2nc(CCCOS(=O)(=O)c3ccc(C)cc3)c(C(F)(F)F)o2)cc1, Cc1cc(=O)c(-c2ccc(Oc3ccc(S(C)(=O)=O)cc3)cc2)c(C)o1 is higher in melting point: 57 to 58 °C for the first, 170 to 173 °C for the second.

Compared with O=C(O)C(CC1CCCC1)c1ccc(-c2cccnc2)cc1 (centres undefined), Cc1cnc(NC(=O)C(c2ccccc2)c2ccccc2)o1 is higher in melting point: 136 to 138 °C for the first, 166 to 168 °C for the second.

First: COc1cccc2c1nc(C(F)F)n2-c1nc(Nc2ccc(NS(C)(=O)=O)nc2)nc(N2CCOCC2)n1
Second: COC(=O)CSc1nc(Nc2ccc(N3CCOCC3)cc2)ncc1[N+](=O)[O-]
The melting point of the first is higher: 302 to 306 °C for the first, 188 to 190 °C for the second.

Compared with Cc1cccc2[nH]c(=O)n(S(=O)(=O)c3ccc(Cl)cc3)c(=O)c12, O=[N+]([O-])c1ccc(OS(=O)(=O)C(F)(F)F)c2oc3ccccc3c12 is lower in melting point: over 250 °C for the first, 102 to 103 °C for the second.

First: C=CCc1cc2c(c(CC=C)c1OC1CCCCO1)CCC(=O)N2CCC#N (centres undefined)
Second: CCOC(=O)c1cc(NCc2ccccc2)c(NC2CCCCC2)c(S(N)(=O)=O)c1
The melting point of the first is lower: 93 to 94 °C for the first, 176 to 177 °C for the second.

First: CS(=O)(=O)Nc1cc2c(cc1Oc1ccccc1)C(=O)C(Br)CO2 (centres undefined)
Second: CSC(C)(C(=O)O)c1cccc(Oc2ccccc2)c1 (centres undefined)
The melting point of the first is higher: 137 to 140 °C for the first, 87 to 88 °C for the second.

First: CC12CC(=O)C3C(CCC4CC(O)CCC43C)C1CCC2C(=O)CCN1C(=O)c2ccccc2C1=O (centres undefined)
Second: O=C1c2ccccc2C(O)(c2ccccc2)N1C1CCN(CCC(c2ccccc2)c2ccccc2)CC1 (centres undefined)
The melting point of the first is higher: 187 to 189 °C for the first, 150 to 153 °C for the second.

First: CCN(C)c1nc2cc(NC(=O)c3c(C(=O)N4CCC4)cnn3C)ccn2n1
Second: CCn1cc(C(=O)O)c(=O)c2c(C)c(F)c(N3CCC(N)C3)c(F)c21 (centres undefined)
The melting point of the first is higher: 229 to 232 °C for the first, 218 to 220 °C for the second.

First: COC1(c2cnc(OCc3ccc(/C(C)=N/O)cc3)s2)CCOCC1
Second: CCOC(=O)C(C)(C)Oc1ccc(OCCn2c(=O)sc3cc(C(=NO)c4ccccc4)ccc32)cc1
The melting point of the first is higher: 107 to 109 °C for the first, 60 to 62 °C for the second.

Compared with N=C(N)c1ccnc(-c2ccc(-c3ccc(-c4cc(C(=N)N)ccn4)s3)s2)c1, CCOP(=O)(OCC)c1ccc(NC(=O)CCc2oc(-c3ccccc3)nc2-c2ccc(Cl)cc2)cc1 is lower in melting point: over 300 °C for the first, 139 to 140 °C for the second.

First: O=C(/C=C/c1c(F)cccc1Cl)/C=C/c1c(F)cccc1Cl
Second: C#Cc1cccc(-c2cccnc2F)c1
The melting point of the first is higher: 144 °C for the first, 45 to 47 °C for the second.

CN1CCN(C)c2c(cccc2[N+](=O)[O-])C1=O and CSC[C@H](Nc1cc(F)ccc1[N+](=O)[O-])C(=O)O cannot be ordered by melting point: 146 to 147 °C for the first, 147 °C for the second.

Compared with Cc1ccc2c(c1)Nc1ccccc1N=C2N1CCN[C@@H](CCc2ccccc2)C1, COc1ccccc1N1CCN(Cc2ccccc2)CC1=O is higher in melting point: 64 to 80 °C for the first, 109 to 111 °C for the second.

Compared with COC(=O)Cc1nsc(NC(=O)OC)n1, COC(=O)c1cc(C=O)cc([N+](=O)[O-])c1 is lower in melting point: 167 to 169 °C for the first, 85 °C for the second.

Compared with CC(=O)NCC1CC1c1c(C)ccc2nn(C)cc12 (centres undefined), CCNc1nc2ccc(OC(F)(F)F)cc2s1 is lower in melting point: 139 to 140 °C for the first, 135 °C for the second.

Compared with CCCCCCN(Cc1cccnc1)C(Nc1cc(C(C)(C)C)c(O)c(C(C)(C)C)c1)=C1C(=O)OC(C)(C)OC1=O, CC(C)(C)c1cc(C=C2SC(=S)N(C3CC3)C2=O)cc(C(C)(C)C)c1O is higher in melting point: 134 to 136 °C for the first, 158 to 168 °C for the second.

Compared with Cc1c(-c2ccccc2)c(C2=CC(N(C)C)CC2)c2oc(C3CC3)nc2c1C#N (centres undefined), Cc1ccc(Oc2ccccc2NN)c(O)c1 is lower in melting point: 144 to 146 °C for the first, 108 to 110 °C for the second.

Compared with COc1cc(O)c(C=O)cc1Br, O=C(CBr)NC1(F)C=CC=CC1C(=O)c1ccccc1 (centres undefined) is higher in melting point: 63 to 64 °C for the first, 120 to 121 °C for the second.

Work on CC(CF)(CF)C(=O)C=Cc1ccccc1 yielded a melting point of 45 °C.

From a melting point compilation (Tetko et al.; mined from patent text by program, amines drawn as free bases though some values may be those of a salt)
